The values below come from US11279686B2, “Nrf2 activating compounds and uses thereof” (Rigel Pharmaceuticals, Inc., priority 2016, dated 2022).

Counter-ions that a name gives are not always drawn. Where only a bound is given, the exact number is not on record here.

Broadly, the EC50 is the concentration giving half of the maximal effect.

The first assay concerns NrF2 (Nuclear factor (erythroid-derived 2)-like 2). The experiment in a line: NrF2 activation in a whole cell nuclear translocation assay. The settings on record: read-out: NrF2 translocation assay EC50; whole cell nuclear translocation; Table 2. It is filed as cell-based. The method, then: NrF2 Activation in a Whole Cell Nuclear Translocation Assay
Compounds were tested in a NrF2 (Nuclear factor (erythroid-derived 2)-like 2) translocation assay by adapting the methods set forth in U.S. Pat. No. 8,101,373, the disclosure of which is incorporated herein by reference.
Regarding `CS(=O)(=O)/C=C/C(=O)O` [Compound 15, (E)-3-(methylsulfonyl)acrylic Acid], the 50% effective concentration (EC50) worked out at 44800 nM.

As to `CS(=O)(=O)/C=C/n1nnn(-c2cccnc2)c1=O` [Compound 3, (E)-1-(2-(methylsulfonyl)vinyl)-4-(pyridin-3-yl)-1,4-dihydro-5H-tetrazol-5-one], the EC50 is 120 nM.

Staying with this assay, now noted: reference fumarates; read-out: NrF2 activation EC50.
Consider `COC(=O)/C=C/C(=O)OC` [dimethyl fumarate, reference compound], for which the EC50 was ~7900 nM.

As for `COC(=O)/C=C/C(=O)O` [Monomethyl fumarate, reference compound], the EC50 is ~127000 nM.

Staying with this assay, now noted: whole cell nuclear translocation; Table 2; read-out: NrF2 translocation assay EC50.
Take `CCn1nnn(/C=C/S(=O)(=O)c2ccc(C)cc2)c1=O` [Compound 16, (E)-1-ethyl-4-(2-tosylvinyl)-1,4-dihydro-5H-tetrazol-5-one]: the EC50 was determined as 190 nM.

On to `COC(=O)/C=C/S(=O)(=O)c1ccc(Br)cc1` [Compound 8], for which the EC50 was < 390 nM.

For `Cc1ccc(S(=O)(=O)/C=C/n2nnn(Cc3ccccc3)c2=O)cc1` [Compound 17, (E)-1-benzyl-4-(2-tosylvinyl)-1,4-dihydro-5H-tetrazol-5-one], the EC50 stood at 170 nM.

In the case of `Cn1nnn(/C=C/S(=O)(=O)c2ccc(F)cc2)c1=O` [Compound 18, (E)-1-(2-((4-fluorophenyl)sulfonyl)vinyl)-4-methyl-1,4-dihydro-5H-tetrazol-5-one], the EC50 was found to be 200 nM.

For `CCOC(=O)/C=C/S(=O)(=O)c1ccccc1` [Compound 7], the EC50 is < 390 nM.

For the molecule `Cc1ccc(S(=O)(=O)/C=C/n2nnn(-c3cccnc3)c2=O)cc1` [Compound 1, (E)-1-(pyridin-3-yl)-4-(2-tosylvinyl)-1,4-dihydro-5H-tetrazol-5-one], the EC50 was determined as 290 nM.

As for `COC(=O)/C=C/S(C)(=O)=O` [Compound 5], the EC50 is 1000 nM.

For `COC(=O)/C=C/S(=O)(=O)c1ccc2ccccc2c1` [Compound 9], the EC50 was < 390 nM.

On to `COC(=O)/C=C/S(=O)(=O)c1ccc(NC(C)=O)cc1` [Compound 4], for which the EC50 turned out to be 750 nM.

Consider `COC(=O)/C=C\S(=O)(=O)c1ccc(F)cc1` [Compound 6], for which the EC50 was determined as 790 nM.

Turning to `O=c1n(/C=C/S(=O)(=O)c2ccc(F)cc2)nnn1-c1cccnc1` [Compound 19, (E)-1-(2-((4-fluorophenyl)sulfonyl)vinyl)-4-(pyridin-3-yl)-1,4-dihydro-5H-tetrazol-5-one], the EC50 stood at 30 nM.

Tested on in the next assay: not listed separately
The experiment in a line: Glutathione depletion assay (Michael reaction with reduced glutathione followed by 1H NMR). The following applies: 2 equiv. reduced glutathione, d6-DMSO, 35° C. The text has this:
See, for example, Lehmann et al. Dimethyfumarate Induces Immunosuppression via Glutathione Depletion and Subsequent Induction of Heme Oxygenase 1, Journal of Investigative Dermatology (2007) 127, 835-845. Accordingly, the present compounds may be assessed in vitro by reaction with glutathione as follows:
(with the top securely fastened).
In all the above cases, dis-appearance of the alkene proton signals from the starting material are used to determine the extent of Michael reaction with glutathione.
As would be understood by those of skill in the art, the above experiments can be repeated by varying the equivalents of reduced glutathione (0.5 to 2 equivalents); the reactions can also be run in a mixture of d6-DMSO and D2O; and the temperature of the reaction can also be varied from room temperature to 35° C. (35° C. being used to mimic body temperature). As used herein “majority reaction” means a greater than 50% reduction in alkene proton signal as observed by ^1H NMR.
`COC(=O)/C=C/n1nn[nH]c1=O` [methyl (E)-3-(5-oxo-4,5-dihydro-1H-tetrazol-1-yl)acrylate]: the “time to majority reaction with glutathione (greater than 50% reduction in alkene proton signal by 1H NMR)” value is ≤ 30 h.

Consider `COC(=O)/C=C/n1nnn(C)c1=O` [methyl (E)-3-(4-methyl-5-oxo-4,5-dihydro-1H-tetrazol-1-yl)acrylate], for which the “time to majority reaction with glutathione (greater than 50% reduction in alkene proton signal by 1H NMR)” value was ≤ 30 h.

The next assay deals with experimental autoimmune encephalomyelitis (EAE). The experiment in a line: Experimental autoimmune encephalomyelitis (EAE) animal model. The format is in vivo, C57BL/6 mice. The following applies: dosed at 60 mg/kg beginning on the day of immunization.
On to `COC(=O)/C=C/n1nn[nH]c1=O` [methyl (E)-3-(5-oxo-4,5-dihydro-1H-tetrazol-1-yl)acrylate], for which the “onset of disease paralysis” value was “significantly prevents”.
